From PubChem BioAssay AID248 (DTP/NCI, 2004)
Toxic doses and inconclusive results are not listed. Cut-off read from the data, not from the text of the source: active = T/C of 150% or more; inactive = T/C below 125%.

Tested on: L1210 leukemia ip in BDF1 mice, survival T/C
Assay: NCI In Vivo Anticancer Drug Screen. Data for tumor model L1210 Leukemia (intraperitoneal) in B6D2F1 (BDF1) mice
Details: endpoint: mean survival time, higher = longer survival
Experimental: The antitumor activity of compounds was measured in mice bearing transplantable tumors. Survival or tumor size were measured and the results are expressed as the measurement made in the treated group (T) divided by the measurement made in the vehicle treated control group (C). The tumor model used in this assay is L1210 Leukemia (intraperitoneal) in B6D2F1 (BDF1) mice

[1] = dose: 100.0 mg/kg/injection, schedule: Q01DX009 (ip), vehicle: saline with Tween-80
[2] = dose: 200.0 mg/kg/injection, schedule: Q01DX009 (ip), vehicle: saline with Tween-80
[3] = dose: 400.0 mg/kg/injection, schedule: Q01DX009 (ip), vehicle: saline with Tween-80
[4] = dose: 100.0 mg/kg/injection, schedule: Q04DX003 (ip), vehicle: saline with Tween-80
[5] = dose: 200.0 mg/kg/injection, schedule: Q04DX003 (ip), vehicle: saline with Tween-80
[6] = dose: 400.0 mg/kg/injection, schedule: Q04DX003 (ip), vehicle: saline with Tween-80
[7] = dose: 100.0 mg/kg/injection, schedule: Q01DX009 (ip), vehicle: saline
[8] = dose: 100.0 mg/kg/injection, schedule: Q04DX003 (ip), vehicle: saline
[9] = dose: 200.0 mg/kg/injection, schedule: Q01DX009 (ip), vehicle: saline
[10] = dose: 200.0 mg/kg/injection, schedule: Q04DX003 (ip), vehicle: saline
[11] = dose: 400.0 mg/kg/injection, schedule: Q04DX003 (ip), vehicle: saline
[12] = dose: 100.0 mg/kg/injection, schedule: Q04DX003 (ip), vehicle: acetone
[13] = dose: 200.0 mg/kg/injection, schedule: Q04DX003 (ip), vehicle: acetone

Measured: T/C

Cc1ccc(C)c(Br)c1C
inactive: [1] 104 % of control | dose: 100.0 mg/kg/injection, schedule: Q04DX002 (ip), vehicle: saline with Tween-80 104 % of control | [2] 104 % of control | dose: 200.0 mg/kg/injection, schedule: Q04DX002 (ip), vehicle: saline with Tween-80 101 % of control | [3] 101 % of control | dose: 400.0 mg/kg/injection, schedule: Q04DX002 (ip), vehicle: saline with Tween-80 101 % of control

O=C(c1ccccc1)c1nc2ccccc2s1
inactive: dose: 12.5 mg/kg/injection, schedule: Q01DX005 (ip), vehicle: other 94 % of control | dose: 25.0 mg/kg/injection, schedule: Q01DX005 (ip), vehicle: other 90 % of control | dose: 50.0 mg/kg/injection, schedule: Q01DX005 (ip), vehicle: other 89 % of control | dose: 100.0 mg/kg/injection, schedule: Q01DX005 (ip), vehicle: other 89 % of control | dose: 200.0 mg/kg/injection, schedule: Q01DX005 (ip), vehicle: other 89 % of control

C[Si](C)(C)Oc1cccc([Si](C)(C)C)c1
inactive: [1] 97 % of control | [2] 95 % of control | [3] 92 % of control

CCc1c(Nc2ccccc2Cl)nc(N)[nH]c1=O
inactive: dose: 100.0 mg/kg/injection, schedule: Q01DX Z (ip), vehicle: methylcellulose (MC) 95 % of control

CC(C)(C)C1CCC(C(=O)c2ccccc2)CC1 (centres undefined)
inactive: [4] 100 % of control | [5] 94 % of control | [6] 89 % of control

O=C(O)C1CC=CCC1C(=O)O (centres undefined)
inactive: dose: 100.0 mg/kg/injection, schedule: Q01DX005 (ip), vehicle: saline 95 % of control | [7] 108 % of control | [4] 97 % of control | [8] 94 % of control | dose: 200.0 mg/kg/injection, schedule: Q01DX005 (ip), vehicle: saline 98 % of control | [9] 118 % of control | [5] 95 % of control | [10] 91 % of control | dose: 400.0 mg/kg/injection, schedule: Q01DX005 (ip), vehicle: saline 92 % of control | [6] 91 % of control | [11] 99 % of control

OCC1COCOC1
inactive: dose: 50.0 mg/kg/injection, schedule: Q01DX009 (ip), vehicle: saline 104 % of control | [7] 106 % of control | [12] 100 % of control | [9] 106 % of control | [13] 105 % of control | dose: 400.0 mg/kg/injection, schedule: Q04DX003 (ip), vehicle: acetone 105 % of control

O=c1c2nccnc2[nH]n1-c1ccccc1
inactive: dose: 25.0 mg/kg/injection, schedule: Q04DX003 (ip), vehicle: Klucel (hydroxypropylcellulose) (HPC) 90 % of control | dose: 50.0 mg/kg/injection, schedule: Q04DX003 (ip), vehicle: Klucel (hydroxypropylcellulose) (HPC) 95 % of control

CC(=O)Nc1c(Cl)c(Cl)c2c(c1Cl)Cc1cc(Cl)c(Cl)cc1-2
inactive: dose: 50.0 mg/kg/injection, schedule: Q01DX009 (ip), vehicle: acetone 93 % of control | dose: 50.0 mg/kg/injection, schedule: Q04DX003 (ip), vehicle: acetone 94 % of control | dose: 100.0 mg/kg/injection, schedule: Q01DX009 (ip), vehicle: acetone 95 % of control | [12] 93 % of control | dose: 200.0 mg/kg/injection, schedule: Q01DX009 (ip), vehicle: acetone 97 % of control | [13] 93 % of control

CC1(C)OC2C(CNCCCl)OC(OCc3ccccc3)C2O1 (centres undefined)
inactive: dose: 50.0 mg/kg/injection, schedule: Q04DX003 (ip), vehicle: saline 96 % of control | [8] 96 % of control

Cc1ccc(OCC(=O)Nc2c(Cl)cc(Cl)cc2Cl)c(C)c1
inactive: dose: 100.0 mg/kg/injection, schedule: Q04DX002 (ip), vehicle: gum acacia 92 % of control | dose: 200.0 mg/kg/injection, schedule: Q04DX002 (ip), vehicle: gum acacia 89 % of control

O=[N+]([O-])c1ccc(OCc2cc(S(=O)(=O)F)ccc2Cl)c(Cl)c1
inactive: dose: 75.0 mg/kg/injection, schedule: Q04DX003 (ip), vehicle: gum acacia 100 % of control | dose: 150.0 mg/kg/injection, schedule: Q04DX003 (ip), vehicle: gum acacia 96 % of control | dose: 300.0 mg/kg/injection, schedule: Q04DX003 (ip), vehicle: gum acacia 91 % of control

CC(C)(C)OC(=O)N1C2CCC(C2)N1C(=O)OC(C)(C)C
inactive: dose: 100.0 mg/kg/injection, schedule: Q01DX001 (ip), vehicle: carboxymethylcellulose (CMC) 100 % of control | dose: 200.0 mg/kg/injection, schedule: Q01DX001 (ip), vehicle: carboxymethylcellulose (CMC) 96 % of control | dose: 400.0 mg/kg/injection, schedule: Q01DX001 (ip), vehicle: carboxymethylcellulose (CMC) 96 % of control

Cc1cc(C)c(-c2c(O)c(Br)c(C)c(O)c2Br)c(C)c1Br
inactive: dose: 75.0 mg/kg/injection, schedule: Q04DX003 (ip), vehicle: Klucel (hydroxypropylcellulose) (HPC) 97 % of control | dose: 150.0 mg/kg/injection, schedule: Q04DX003 (ip), vehicle: Klucel (hydroxypropylcellulose) (HPC) 97 % of control | dose: 300.0 mg/kg/injection, schedule: Q04DX003 (ip), vehicle: Klucel (hydroxypropylcellulose) (HPC) 92 % of control

CCC1(C)CC(=O)N(C/C=C(\C)CCC(=O)O)C(=O)C1
inactive: dose: 100.0 mg/kg/injection, schedule: Q01DX009 (ip), vehicle: other 103 % of control | dose: 100.0 mg/kg/injection, schedule: Q04DX003 (ip), vehicle: other 89 % of control | dose: 200.0 mg/kg/injection, schedule: Q01DX009 (ip), vehicle: other 101 % of control | dose: 200.0 mg/kg/injection, schedule: Q04DX003 (ip), vehicle: other 100 % of control | dose: 400.0 mg/kg/injection, schedule: Q01DX009 (ip), vehicle: other 93 % of control | dose: 400.0 mg/kg/injection, schedule: Q04DX003 (ip), vehicle: other 96 % of control

CC1(C)CCCC(Cl)(C(Cl)c2ccccc2)C1=O (centres undefined)
inactive: [7] 90 % of control | [8] 104 % of control | [9] 95 % of control | [10] 102 % of control | dose: 400.0 mg/kg/injection, schedule: Q01DX009 (ip), vehicle: saline 91 % of control | [11] 104 % of control

CSCCC(NC(=O)NS(=O)(=O)c1ccc(C)cc1)C(=O)O (centres undefined)
inactive: [4] 96 % of control | [5] 97 % of control | [6] 100 % of control

COc1ccc(CSSP(=S)(OC)c2ccc(OC)cc2)cc1 (centres undefined)
inactive: [1] 91 % of control | [2] 95 % of control | [3] 88 % of control

CC(=O)Oc1cc(-c2ccccc2)c(OC(C)=O)cc1-c1ccccc1
inactive: dose: 25.0 mg/kg/injection, schedule: Q01DX009 (ip), vehicle: water 96 % of control | dose: 50.0 mg/kg/injection, schedule: Q01DX009 (ip), vehicle: water 101 % of control | dose: 100.0 mg/kg/injection, schedule: Q01DX009 (ip), vehicle: water 94 % of control | dose: 200.0 mg/kg/injection, schedule: Q01DX009 (ip), vehicle: water 101 % of control | dose: 400.0 mg/kg/injection, schedule: Q01DX009 (ip), vehicle: water 100 % of control
